Tests used:
Assay type in all cases: cell-based
OCI-Ly3 = test: 14-day cell proliferation assay, OCI-Ly3; conditions: Homo sapiens, 14-day assay, BCL6-independent line
Source text: DMSO final concentration.
After a short centrifugation the
(1st emission filter) / 450-80 nm (2nd emission filter). The % inhibition at each test concentration was […]
sigmoidal four-parameter logistic fit equation.
2.3 Cell proliferation assay
Aldrich) supplemented with 10% FBS (Gibco). Compounds were initially dispensed into 96-well U-bottom […]
transferred onto the cells.
Assay plates containing cells
(Beckman Coulter). The volume of medium containing 2500 cells in the control well was calculated and this volume of cells was transferred from every well of the assay plates to the corresponding well of the fresh plates containing compound. After 14 days, CellTiter Glo reagent (Promega) was added to the medium in each well of the assay plate at a ratio of 1:2, mixed on a plate shaker, then incubated at room temperature for 10 minutes. Luminescence was measured using an Envision plate reader (Perkin Elmer) and the relative luminescence at each compound concentration, compared to DMSO alone, was calculated. GI50 were determined using a 4-parameter curve fit in Dotmatics (Bishops Stortford, UK).

CCKAR = target: T1, CCKAR (Homo sapiens, UniProt P32238); test: SAFETYscan Calcium Flux CCKAR Agonist
T1 sequence (P32238 1-428): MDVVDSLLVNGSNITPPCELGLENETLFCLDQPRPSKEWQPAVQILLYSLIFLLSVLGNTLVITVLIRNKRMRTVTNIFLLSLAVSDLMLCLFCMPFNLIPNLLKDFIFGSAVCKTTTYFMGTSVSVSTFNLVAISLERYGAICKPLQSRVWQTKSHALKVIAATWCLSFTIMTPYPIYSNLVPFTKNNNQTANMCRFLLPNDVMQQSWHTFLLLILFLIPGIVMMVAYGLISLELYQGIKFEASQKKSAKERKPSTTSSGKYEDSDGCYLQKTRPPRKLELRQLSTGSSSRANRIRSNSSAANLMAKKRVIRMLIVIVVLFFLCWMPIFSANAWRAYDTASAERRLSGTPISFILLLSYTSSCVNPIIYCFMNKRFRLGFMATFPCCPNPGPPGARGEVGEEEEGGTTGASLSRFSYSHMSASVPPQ
Source text: (§1) Supplement jm3c00155_si_002.xlsx, sheet "SAFETYScan" | column: RC50 (uM); Max Response

CHRM1 = target: T2, CHRM1 (Homo sapiens, UniProt P11229); test: SAFETYscan Calcium Flux CHRM1 Agonist
T2 sequence (P11229 1-460): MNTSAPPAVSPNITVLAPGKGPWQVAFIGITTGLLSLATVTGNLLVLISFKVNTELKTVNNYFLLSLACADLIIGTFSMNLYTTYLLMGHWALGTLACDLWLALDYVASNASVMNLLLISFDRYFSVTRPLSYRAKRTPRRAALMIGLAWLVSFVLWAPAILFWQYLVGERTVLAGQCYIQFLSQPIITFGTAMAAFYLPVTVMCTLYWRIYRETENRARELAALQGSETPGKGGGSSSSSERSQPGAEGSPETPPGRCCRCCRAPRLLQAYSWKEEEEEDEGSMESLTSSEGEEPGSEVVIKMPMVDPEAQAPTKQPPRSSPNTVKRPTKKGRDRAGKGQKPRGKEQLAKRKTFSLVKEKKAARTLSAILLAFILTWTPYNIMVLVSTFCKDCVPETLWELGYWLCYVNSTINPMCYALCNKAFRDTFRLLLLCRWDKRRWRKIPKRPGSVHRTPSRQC
Source text: as §1

HTR3A = target: T3, HTR3A (Homo sapiens, UniProt P46098); test: SAFETYscan Ion Channel HTR3A Opener
T3 sequence (P46098 24-478): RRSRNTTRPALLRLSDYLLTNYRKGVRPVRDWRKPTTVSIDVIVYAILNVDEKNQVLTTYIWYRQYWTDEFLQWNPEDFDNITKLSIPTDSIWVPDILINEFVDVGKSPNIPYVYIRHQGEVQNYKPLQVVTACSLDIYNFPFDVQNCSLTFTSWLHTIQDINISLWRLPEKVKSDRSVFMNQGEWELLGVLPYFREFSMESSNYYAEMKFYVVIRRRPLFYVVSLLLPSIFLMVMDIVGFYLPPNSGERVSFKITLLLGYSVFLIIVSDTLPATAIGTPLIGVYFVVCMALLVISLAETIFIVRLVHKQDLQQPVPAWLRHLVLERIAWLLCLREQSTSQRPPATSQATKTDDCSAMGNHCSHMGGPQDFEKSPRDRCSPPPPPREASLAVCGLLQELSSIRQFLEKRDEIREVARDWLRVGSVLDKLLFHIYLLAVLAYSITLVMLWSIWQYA
Source text: as §1

GR = target: T4, GR (Homo sapiens, UniProt P04150); test: SAFETYscan NHR Protein Interaction GR Agonist
T4 sequence (P04150 1-777): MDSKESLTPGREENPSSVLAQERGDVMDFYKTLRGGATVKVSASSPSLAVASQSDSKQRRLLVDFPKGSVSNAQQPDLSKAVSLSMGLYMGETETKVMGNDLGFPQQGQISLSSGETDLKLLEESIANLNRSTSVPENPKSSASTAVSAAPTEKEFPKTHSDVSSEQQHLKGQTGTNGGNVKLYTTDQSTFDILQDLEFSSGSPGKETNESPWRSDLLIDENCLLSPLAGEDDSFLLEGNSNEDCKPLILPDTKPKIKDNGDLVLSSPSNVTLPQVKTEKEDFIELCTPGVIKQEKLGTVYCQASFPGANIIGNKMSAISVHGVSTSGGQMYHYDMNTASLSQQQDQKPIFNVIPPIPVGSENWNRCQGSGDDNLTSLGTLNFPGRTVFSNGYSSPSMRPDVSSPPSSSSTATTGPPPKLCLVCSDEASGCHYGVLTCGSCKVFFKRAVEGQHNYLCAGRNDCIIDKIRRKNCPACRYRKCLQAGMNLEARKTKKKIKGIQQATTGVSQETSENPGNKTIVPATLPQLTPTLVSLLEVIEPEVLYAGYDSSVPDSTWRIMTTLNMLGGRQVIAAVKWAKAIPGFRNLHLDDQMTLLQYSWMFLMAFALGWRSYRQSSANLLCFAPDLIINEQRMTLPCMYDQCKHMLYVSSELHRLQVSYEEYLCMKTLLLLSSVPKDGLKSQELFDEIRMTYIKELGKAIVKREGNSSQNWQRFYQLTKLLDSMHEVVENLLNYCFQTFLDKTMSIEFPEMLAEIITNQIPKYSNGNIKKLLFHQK
Source text: as §1

DAT = DAT (Homo sapiens, UniProt Q01959); test: SAFETYscan Transporter DAT Blocker
Source text: as §1

NET = NET (Homo sapiens, UniProt P23975); test: SAFETYscan Transporter NET Blocker
Source text: as §1

Sequence of NET (P23975 whole entry): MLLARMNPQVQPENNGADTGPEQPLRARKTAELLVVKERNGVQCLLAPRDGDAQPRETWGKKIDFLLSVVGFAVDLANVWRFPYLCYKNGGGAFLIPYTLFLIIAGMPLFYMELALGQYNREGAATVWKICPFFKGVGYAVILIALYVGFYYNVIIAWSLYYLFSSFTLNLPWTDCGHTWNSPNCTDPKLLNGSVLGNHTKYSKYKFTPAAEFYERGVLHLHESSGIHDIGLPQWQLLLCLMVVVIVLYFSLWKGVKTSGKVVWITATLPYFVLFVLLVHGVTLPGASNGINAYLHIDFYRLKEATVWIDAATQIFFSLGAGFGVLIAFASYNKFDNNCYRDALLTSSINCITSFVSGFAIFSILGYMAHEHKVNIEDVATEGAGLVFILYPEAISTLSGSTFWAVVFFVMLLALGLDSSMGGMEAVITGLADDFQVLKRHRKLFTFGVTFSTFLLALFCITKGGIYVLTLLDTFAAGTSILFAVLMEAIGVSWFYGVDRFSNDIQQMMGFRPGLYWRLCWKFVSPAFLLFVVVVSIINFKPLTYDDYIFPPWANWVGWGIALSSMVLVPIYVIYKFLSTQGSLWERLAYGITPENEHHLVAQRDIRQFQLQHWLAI
Sequence of DAT (Q01959 whole entry, species assumed): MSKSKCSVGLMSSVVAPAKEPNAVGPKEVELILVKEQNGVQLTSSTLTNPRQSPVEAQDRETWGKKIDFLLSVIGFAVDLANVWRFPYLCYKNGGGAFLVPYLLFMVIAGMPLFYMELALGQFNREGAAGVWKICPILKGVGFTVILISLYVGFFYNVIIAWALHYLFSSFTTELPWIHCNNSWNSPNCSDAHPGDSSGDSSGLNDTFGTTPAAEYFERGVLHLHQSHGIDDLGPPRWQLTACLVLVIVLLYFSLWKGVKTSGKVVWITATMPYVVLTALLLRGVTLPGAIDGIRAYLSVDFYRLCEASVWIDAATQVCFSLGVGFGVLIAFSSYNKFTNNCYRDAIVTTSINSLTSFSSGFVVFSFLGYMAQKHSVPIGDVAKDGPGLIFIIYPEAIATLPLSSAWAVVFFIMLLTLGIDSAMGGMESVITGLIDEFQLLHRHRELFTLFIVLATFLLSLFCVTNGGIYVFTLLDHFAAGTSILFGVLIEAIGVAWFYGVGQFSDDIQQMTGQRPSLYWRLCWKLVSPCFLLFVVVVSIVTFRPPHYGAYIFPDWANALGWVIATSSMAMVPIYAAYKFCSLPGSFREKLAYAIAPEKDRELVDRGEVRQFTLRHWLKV

Cn1c(=O)c2c(c3cc(Nc4ccnc(F)c4Cl)ccc31)N[C@@H](C1CC1)C(F)(F)CO2 [compound 17, (S)-10-((3-chloro-2-fluoropyridin-4-yl)amino)-2-cyclopropyl-3,3-difluoro-7-methyl-1,2,3,4-tetrahydro-[1,4]oxazepino[2,3-c]quinolin-6(7H)-one]
GI50 (OCI-Ly3): 1.85 µM
Emax (CCKAR; read-out: Max Response): 0.06%
EC50 (CCKAR; read-out: RC50 (EC50)): > 10 µM
EC50 (CHRM1): > 10 µM
Emax (CHRM1; CHRM1, Calcium Flux, Agonist, read-out: Max Response): 1.44%
EC50 (HTR3A): > 10 µM
Emax (HTR3A; HTR3A, Ion Channel, Opener, read-out: Max Response): 0%
Emax (GR; read-out: Max Response): 0%
EC50 (GR; read-out: RC50 (EC50)): > 10 µM
IC50 (DAT): > 10 µM
Emax (DAT; DAT, Transporter, Blocker, read-out: Max Response): 0%
IC50 (NET): > 10 µM
Emax (NET; NET, Transporter, Blocker, read-out: Max Response): 0%

Source: paper PMC10150366, “Discovery of an In Vivo Chemical Probe for BCL6 Inhibition by Optimization of Tricyclic Quinolinones” (Journal of Medicinal Chemistry, 2023)
